Data: patent US12416036B2, “High-throughput enzyme assay for screening activity of acyltransferases” (CORNELL UNIVERSITY, priority 2021, dated 2025)
Numbering of substitutions follows the chain as printed. “Also recorded” adds a separate entry of the source. Like-named read-outs stand apart in the source and are kept apart here. Residues, ends and D or L forms follow the SMILES beside them. *: point of attachment. 5FAM = O=C1OC2(c3ccc(O)cc3Oc3cc(O)ccc32)c2ccc(C(=O)*)cc21

Columns and labels:
ZDHHC3 [1] = molecular target: T1, ZDHHC3 (Mus musculus, UniProt Q8R173); assay: ZDHHC3 Acyl-cLIP assay (end-point method); format: biochemical; details: for inhibition of ZDHHC3 compared with ZDHHC7 (Acyl-cLIP): comparison of Acyl-cLIP IC50 values
T1 construct: FLAG (C); His (C); made in house; host or cells: Sf9 insect cells (baculovirus)
T1 sequence (Q8R173 1-299): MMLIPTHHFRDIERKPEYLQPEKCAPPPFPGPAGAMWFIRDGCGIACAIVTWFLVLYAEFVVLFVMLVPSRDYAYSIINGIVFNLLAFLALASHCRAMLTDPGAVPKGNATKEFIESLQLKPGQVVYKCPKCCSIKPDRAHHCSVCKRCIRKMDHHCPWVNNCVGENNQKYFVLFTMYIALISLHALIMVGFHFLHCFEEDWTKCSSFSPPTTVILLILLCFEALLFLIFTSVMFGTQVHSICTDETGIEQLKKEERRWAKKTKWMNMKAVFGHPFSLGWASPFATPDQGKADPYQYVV
Procedure: The DHHC3 IC50 value for 2-BP and MY-D-4 were approximately 250 and 50 μM, respectively (Table 1).
ZDHHC3 was assayed using the similar protocol at a final concentration of 0.6 μM.
The rest of the experiment was done identical to the ZDHHC7 assay.
(§1) Purification of ZDHHC enzymes.

ZDHHC7 [2] = molecular target: T2, ZDHHC7 (Mus musculus, UniProt Q91WU6); assay: ZDHHC7-myrGia PAT assay with [3H]palmitoyl-CoA; format: biochemical; set-up: myc (vector pblueBac4.5-myc3His10) (C); His (vector pblueBac4.5-myc3His10) (C); made in house; host or cells: Sf9 insect cells (baculovirus); details: [3H]palmitoyl-CoA and myr-Gia substrate; 10 min pre-incubation at 30° C.
T2 sequence (Q91WU6 1-308): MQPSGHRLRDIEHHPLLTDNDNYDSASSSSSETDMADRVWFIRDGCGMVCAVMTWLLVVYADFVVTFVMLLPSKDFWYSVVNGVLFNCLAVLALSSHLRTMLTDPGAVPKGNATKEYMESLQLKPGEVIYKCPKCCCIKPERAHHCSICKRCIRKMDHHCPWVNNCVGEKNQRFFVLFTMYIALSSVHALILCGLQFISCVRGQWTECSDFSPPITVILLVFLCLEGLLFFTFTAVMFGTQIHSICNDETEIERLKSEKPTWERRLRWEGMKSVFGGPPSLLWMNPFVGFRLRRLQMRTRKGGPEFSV
Procedure: To further evaluate the potency of the inhibitors, the four compounds were tested using ZDHHC7-catalyzed palmitoylation of myristoylated (myr) Gi protein a subunit (Gia) using an established in vitro assay with [^3H]palmitoyl-CoA. Myr-Gia was previously reported as a substrate for ZDHHC7 (R. Tsutsumi et al., Mol. Cell. Biol., 29, 435-447, 2009). ZDHHC7 and the inhibitors were pre-incubated at 30° C. for 10 min, followed by the addition of [^3H]pal-mitoyl-CoA and myr-Gia. The acylation reaction was allowed to proceed at 30° C. for 10 min, the reaction was quenched, and the proteins resolved by SDS-PAGE. The [^3H]-palmitoylated myrGia band was excised from the gel and the level of [^3H]palmitoylation was measured by scintillation counting. […] Additionally, MY-D-2 and MY-D-3 inhibited ZDHHC7 weaker than 2-BP.
as §1
ZDHHC7-myrGia PAT Assay. Rat Myr-Gia was generated by transforming C-terminally His-tagged Gia in JM101 competent cells containing the N-myristoyltransferase (NMT) plasmid. Following inoculation and induction of the bacterial cells, myr-Gia was purified from total cell lysates using Ni-NTA resin. […] The PAT reaction was then initiated by mixing the enzyme:inhibitor solution with [^3H]-palmitoyl CoA (1 μM) and myr-Gia (1 μM). The reaction was allowed to proceed for 10 min at 30° C. and then stopped with the addition of sample buffer containing 10 mM TCEP. Proteins were resolved on a Coomassie-stained gel, and the myr-Gia band was excised and dissolved in Soluene (Perkin-Elmer). The excised bands were heated at 37° C. overnight and then combined with Ultima Gold scintillation fluid (Perkin-Elmer). Radioactivity was measured by scintillation counting. IC50 values for the inhibitors were calculated by plotting the inhibition curves in GraphPad Prism.

ZDHHC7 [3] = molecular target: T2, ZDHHC7; assay: ZDHHC7 Acyl-cLIP assay (end-point method)
Procedure: Because these inhibitors may form irreversible covalent bonds with ZDHHCs, the order of adding the reagents were changed and included a 30-minute pre-incubation time to permit the bond to form prior to the addition of the FAM peptide and palmitoyl-CoA to initiate the reaction.
n-Dodecyl β-D-maltoside (DDM, 1.3 mg) was dissolved in 1 mL of water by vigorous vortexing. Preparing for 19 samples, “Buffer A” was prepared as follows: In a 1.5 mL Eppendorf tube with the DDM solution (190 μL), MES buffer pH 6.5 (stock concentration 500 mM, 38 μL), TCEP (stock concentration 30 mM, 6.33 μL), and ZDHHC7 (stock concentration 6 μM, 19 μL) were added. For the same 19 samples, “Buffer B” was prepared as followed. In a 1.5 mL Eppendorf tube with the DDM solution (76 μL), palmitoyl-CoA (stock concentration 1.5 mM, 12.6 μL) and FAM-Kras4a substrate (stock concentration 0.5 mM, 19 μL) was added. To each well of a black 384 well plate (Corning 3575), 1 μL of inhibitor (concentration ranging from 93.75 μM to 6000 μM) was added. First, 13.3 μL of “Buffer A” was added to each well. After a 30-minute pre-incubation, 5.66 μL of “Buffer B” was added. The final concentration of the reaction mixture was 50 mM MES pH 6.4, 0.5 mM TCEP, 40 μM palmitoyl-CoA, 0.3 μM ZDHHC7, and 25 μM FAM-KRas4a substrate in 0.1% DDM solution. After 30 minutes, the reaction was quenched by adding 4 μL of 6 mM non-FAM KRas-4a substrate. The fluorescence anisotropy was measured by citation 5 with “8040561 Filter BLK ASBY GRN FP VSBL K” cube at excitation of 485/20 nm, emission of 528/20 nm, and normal read speed mode. The measurements were done in 3 replicates at each inhibitor concentration.

ZDHHC7 [4] = molecular target: T3, ZDHHC7 (Homo sapiens, UniProt Q9NXF8); assay: STAT3 fatty acylation induced by ZDHHC7 in HEK293T cells (Alk14 labeling, in-gel fluorescence); details: for STAT3 fatty acylation (ZDHHC7): 50 μM inhibitor, 6-hour treatment; for STAT3 acylation (ZDHHC7): 12- and 24-hour inhibitor treatment; for in-cell inhibition of ZDHHC7 (overall): HEK293T cells, summary statement
T3 sequence (Q9NXF8 1-308): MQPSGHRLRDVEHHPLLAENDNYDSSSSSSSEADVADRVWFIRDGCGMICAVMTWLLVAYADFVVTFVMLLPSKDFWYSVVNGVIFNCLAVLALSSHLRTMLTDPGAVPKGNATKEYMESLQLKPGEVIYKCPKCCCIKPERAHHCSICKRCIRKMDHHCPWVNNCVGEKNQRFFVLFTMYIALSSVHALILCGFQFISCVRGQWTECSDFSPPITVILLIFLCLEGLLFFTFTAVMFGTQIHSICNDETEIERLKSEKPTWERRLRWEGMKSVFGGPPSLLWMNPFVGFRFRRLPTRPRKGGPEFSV
Procedure: Cells were treated with 50 μM of the inhibitors for the indicated hours and labeled with 50 μM of Alk-14 for 6 hours. […] Cells were treated with 25 μM of inhibitors for 16 hours and labeled with 50 μM of Alk-14 for 6 hours. Relative FL/Protein for both experiments was calculated by dividing fluorescence signal by the protein level from the corresponding “CBB” lane. The fatty acylation level of DMSO with Alk14 was set to 1.
Flag-tagged STAT3 and HA-tagged ZDHHC7 were expressed in HEK293T cells. The cells were incubated with the four inhibitors. During the last six hours of the incubation, 50 μM of Alk14 probe was added to metabolically label palmitoylated STAT3. After collecting and lysing the cells, STAT3 was immunoprecipitated and the levels of acylation were determined by in-gel fluorescence after click chemistry.
HEK 293T cells were transfected with STAT3-Flag and ZDHHC3-HA or ZDHHC7-HA for 36 h, and treated with 50 μM 2-BP, MY-D-2, MY-D-3, or MY-D-4 for the indicated time with 6 h Alk14 labeling (50 μM). Cells were collected and lysed in the 1% NP-40 lysis buffer (25 mM Tris-HCl pH 8.0, 10% glycerol, 150 mM NaCl, 1% Nonidet P-40) with protease inhibitor cocktail (P8340, Sigma). STAT3-Flag was purified by anti-Flag agarose beads and resuspended in 50 μL IP wash buffer (25 mM Tris-HCl pH 8.0, 150 mM NaCl, 0.2% Nonidet P-40). Click chemistry was done by adding a mixture of 3 μL of 2 mM TAMRA azide (47130, Lumiprobe), 3.6 μL of 10 mM tris[(1-benzyl-1H-1,2,3-triazol-4-yl)methyl]amine (TBTA) (T2993, TCI chemicals), 3 μL of 40 mM CuSO4, 3 μL of 40 mM tris(2-carboxyethyl)phosphine HCl (TCEP hydrochloride) (580560, Millipore) to each sample. The mixtures were mixed by vortex and incubated in dark at room temperature for 30 min. 20 μL of the 6× loading buffer was added into each reaction mixture and the mixture was boiled at 95° C. for 10 min to denature. The mixture was separated by SDS-PAGE gel. The gel was scanned by the Typhoon 7000 Variable Mode Imager (GE Healthcare Life Sciences) in the rhodamine channel to visualize the fatty acylation of STAT3 and was stained with Coomassie Brilliant Blue (B7920, Sigma) to check for protein loading. Relative FL/Protein quantification was done by ImageJ.

ZDHHC7 [5] = molecular target: T2, ZDHHC7; assay: Enzyme kinetics of ZDHHC7 on the FAM-KRas4a peptide by HPLC; format: biochemical; set-up: myc (vector pblueBac4.5-myc3His10) (C); His (vector pblueBac4.5-myc3His10) (C); made in house; host or cells: Sf9 insect cells (baculovirus); details: ZDHHC7, 60 μM palmitoyl-CoA
Procedure: ZDHHC-catalyzed S-palmitoylation was detected by LC-MS. To facilitate detection by UV, two tryptophan residues were added to the C-terminus of the peptide. In a second peptide, the 5-FAM group was attached to permit detection in the acyl-cLIP assay.
In solutions containing 0.1% DMM, 50 mM MES pH 6.4, 0.5 mM TCEP, 60 μM palmitoyl-CoA, and 0.15 μM DHHC7, FAM-KRas peptide was added to final concentration ranging from 31.25 μM to 2000 μM. After 10 minutes of incubation, the reaction was quenched with 0.1% acetonitrile. After centrifuging at 17 000 g for 10 minutes, the supernatant was loaded to Shimadzu HPLC LC20 Ad with Kinetex 5u EVO C18 100 Å column (100 mm×4.60 mm, 5 μm) for UV detection at 260 nm. Using HPLC-grade water with 0.1% trifluoroacetic acid as Buffer A and HPLC-grade acetonitrile with 0.1% trifluoroacetic acid, at a constant rate of 0.5 mL/min, the linear gradient for elution was 0% Buffer B (0-2 min), 20% Buffer B (2-4 min), 40% Buffer B (4-17 min), 100% Buffer B (17-19 min), 100% Buffer B (19-24 min), 0% Buffer B (24-25 min), and 0% Buffer B (25-30 min). Product formed was quantified using the ratio of substrate and product peak areas. After the detection, Km and kcat values were measured by GraphPad Prism software.

ZDHHC3 [6] = molecular target: T4, ZDHHC3 (Homo sapiens, UniProt Q9NYG2); assay: STAT3 fatty acylation induced by ZDHHC3 in HEK293T cells (Alk14 labeling, in-gel fluorescence); format: cell-based; details: for effect on ZDHHC3-catalyzed STAT3 acylation level: 25 μM, 6-hour treatment
T4 construct: HA; expressed in transfected cells; host or cells: HEK 293T cells
T4 sequence (Q9NYG2 1-299): T1 sequence (Q8R173 1-299) with D11N, A25V, F29Y, A33V, A35T, V68I, A74V, A224G
Excerpt: Next experiments also tested the four compounds for ZDHHC3 inhibition in HEK293T cells that over-express both ZDHHC3 and STAT3. […] Thus, the results from the Acyl-cLIP assay can be used to predict cellular responses.

ZDHHC7 [7] = molecular target: T2, ZDHHC7; assay: ZDHHC-HRas PAT assay, ZDHHC7; format: biochemical; set-up: myc (vector pblueBac4.5-myc3His10) (C); His (vector pblueBac4.5-myc3His10) (C); made in house; host or cells: Sf9 insect cells (baculovirus); details: fixed inhibitor concentration of 1 μM; order MY-D-4, 2-BP, MY-D-2, MY-D-3
Procedure: (§2) The results of the Acyl-cLIP assay were also compared with a conventional assay using HRas protein. Next experiments screened at a fixed inhibitor concentration of 1 μM against ZDHHC3 and ZDHHC7 using [^3H]palmitoyl-CoA and HRas protein as substrates. The levels of [^3H]palmitoylated HRas were detected.
as §1
(§3) ZDHHC-HRas PAT Assay. His-HRas was purified from total cell lysates of baculovirus-infected Sf9 cells using Ni-NTA resin.

ZDHHC3 [8] = molecular target: T1, ZDHHC3; assay: ZDHHC-HRas PAT assay, ZDHHC3; format: biochemical; details: fixed inhibitor concentration of 1 μM; order MY-D-4, 2-BP, MY-D-2, MY-D-3
Procedure: as §2, §1, §3

[9] = 30-minute pre-incubation, FAM-KRas4a peptide substrate
[10] = IC50 (μM) ZDHHC7 (Acyl-cLIP), 30-minute pre-incubation with inhibitor, FAM-KRas4a peptide substrate
[11] = IC50 ZDHHC7 (Acyl-cLIP) without the pre-incubation, without pre-incubation

IC50 (ZDHHC7 [2]) | STAT3 fatty acylation (ZDHHC7) (ZDHHC7 [4]; HEK293T) | effect on ZDHHC3-catalyzed STAT3 acylation level (ZDHHC3 [6]) | IC50 (μM) ZDHHC3 (Acyl-cLIP) (ZDHHC3 [1]; [9]) | IC50 (ZDHHC7 [3]; [10]) | IC50 (ZDHHC7 [3]; [11]) | in-cell inhibition of ZDHHC7 (overall) (ZDHHC7 [4]) | inhibition of ZDHHC7 (Acyl-cLIP) at highest concentration (ZDHHC7 [3]; at 150 μM) | inhibition of ZDHHC3 in living cells (FIG. 4B) (ZDHHC3 [6]; 25 μM of inhibitors for 16 hours) | IC50 (ZDHHC3 [1]) | IC50 (ZDHHC7 [4]) | SMILES | IC50 (ZDHHC3 [1]; [9]) | inhibition of ZDHHC3 compared with ZDHHC7 (Acyl-cLIP) (ZDHHC3 [1]) | IC50 (ZDHHC7 [3]; read-out: IC50 (μM) ZDHHC7 (Acyl-cLIP), 30-minute pre-incubation with inhibitor, FAM-KRas4a peptide substrate) | IC50 (ZDHHC7 [3]; read-out: IC50 ZDHHC7 (Acyl-cLIP) without the pre-incubation, without pre-incubation) | time-dependent inhibition of STAT3 acylation (ZDHHC7) (ZDHHC7 [4]; 25 μM inhibitor, HEK293T) | STAT3 acylation (ZDHHC7) (ZDHHC7 [4]; HEK293T) | Km (ZDHHC7 [5]) | inhibition of ZDHHC7, levels of [3H]palmitoylated HRas (ZDHHC7 [7]) | inhibition of ZDHHC3, levels of [3H]palmitoylated HRas (ZDHHC3 [8])
 |  |  |  |  |  |  |  |  |  |  | CC[C@H](C)[C@H](NC(=O)c1ccc2c(c1)C(=O)OC21c2ccc(O)cc2Oc2cc(O)ccc21)C(=O)N[C@@H](CO)C(=O)N[C@@H](CCCCN)C(=O)N[C@@H](CCC(=O)O)C(=O)N[C@@H](CCC(=O)O)C(=O)N[C@@H](CCCCN)C(=O)N[C@H](C(=O)N1CCC[C@H]1C(=O)NCC(=O)N[C@@H](CS)C(=O)N[C@H](C(=O)N[C@@H](CCCCN)C(=O)N[C@H](C(=O)N[C@@H](CCCCN)C(=O)N[C@@H](CCCCN)C(=O)O)[C@@H](C)CC)C(C)C)[C@@H](C)O [FAM-KRas4a peptide] (5FAM-ISKEEKTPGCVKIKK-OH) |  |  |  |  |  |  | 184 µM |  | 
29 µM | only slightly decreased | only slightly affected | No | 38 µM | 75 µM | only mild inhibition |  |  |  |  | CCCCCCCCCCCCCCC(Br)C(=O)OC [MY-D-2, methyl 2-bromohexadecanoate] |  |  |  |  |  |  |  |  | 
78 µM | had no effect | did not alter | No | > 150 µM |  | no inhibition | no inhibition |  |  |  | CCCCCCCCCCCCCCC(Br)C(=O)Nc1ccccc1 [MY-D-3, 2-bromo-N-phenylhexadecanamide] |  |  |  |  |  |  |  |  | 

SMILES | IC50 (ZDHHC7 [2]) | STAT3 fatty acylation (ZDHHC7) (ZDHHC7 [4]; HEK293T) | effect on ZDHHC3-catalyzed STAT3 acylation level (ZDHHC3 [6]) | IC50 (μM) ZDHHC3 (Acyl-cLIP) (ZDHHC3 [1]; [9]) | IC50 (ZDHHC7 [3]; [10]) | IC50 (ZDHHC7 [3]; [11]) | in-cell inhibition of ZDHHC7 (overall) (ZDHHC7 [4]) | inhibition of ZDHHC7 (Acyl-cLIP) at highest concentration (ZDHHC7 [3]; at 150 μM) | inhibition of ZDHHC3 in living cells (FIG. 4B) (ZDHHC3 [6]; 25 μM of inhibitors for 16 hours) | IC50 (ZDHHC3 [1]) | IC50 (ZDHHC7 [4]) | IC50 (ZDHHC3 [1]; [9]) | inhibition of ZDHHC3 compared with ZDHHC7 (Acyl-cLIP) (ZDHHC3 [1]) | IC50 (ZDHHC7 [3]; read-out: IC50 (μM) ZDHHC7 (Acyl-cLIP), 30-minute pre-incubation with inhibitor, FAM-KRas4a peptide substrate) | IC50 (ZDHHC7 [3]; read-out: IC50 ZDHHC7 (Acyl-cLIP) without the pre-incubation, without pre-incubation) | time-dependent inhibition of STAT3 acylation (ZDHHC7) (ZDHHC7 [4]; 25 μM inhibitor, HEK293T) | STAT3 acylation (ZDHHC7) (ZDHHC7 [4]; HEK293T) | Km (ZDHHC7 [5]) | inhibition of ZDHHC7, levels of [3H]palmitoylated HRas (ZDHHC7 [7]) | inhibition of ZDHHC3, levels of [3H]palmitoylated HRas (ZDHHC3 [8])
CCCCCCCCCCCCCCC(Br)C(=O)O (centres unmarked) [2-BP, 2-bromopalmitate, reference compound] | 16 µM | abolished |  |  |  |  |  |  |  |  |  | > 250 µM | inhibited ZDHHC3 much less than ZDHHC7 | 9 µM | 12 µM | slightly more inhibitory effect than MY-D-4 | completely eliminated |  |  | 
CCCCCCCCCCCCCCC(Br)C(=O)SCCNC(C)=O [MY-D-4, S-(2-acetamidoethyl) 2-bromohexadecanethioate] | 1.6 µM | significantly reduced |  |  | 4.4 µM | 6.3 µM | slightly weaker than or similar potency to 2-BP; also recorded: inhibits |  | inhibits | ~50 µM | 1 to 5 µM |  | inhibited ZDHHC3 much less than ZDHHC7 |  |  |  | completely eliminated |  | strongest inhibition among the four compounds | strongest inhibition among the four compounds
